Experimental data as given in patent US20220267309A1, “DIMERIC OR POLYMERIC FORM OF MUTANT IDH INHIBITOR” (EPITAS BIOSCIENCES (SHANGHAI) CO., LTD., priority 2019, published 2022).
Like-named read-outs stand apart in the source and are kept apart here.

How the values were obtained:
Assay type in all cases: cell-based
[1] = target: T1, IDH2/R140Q (Homo sapiens, UniProt P48735, R140Q); assay: Inhibitory activity against mutant IDH2/R140Q at the cellular level (extracellular 2-HG, U87MG cells); conditions: glioma cell U87MG overexpressing IDH2/R140Q; for IC50: 2-HG in culture medium
T1 construct: expressed in transfected cells; host or cells: U87MG glioma cells
T1 sequence (P48735 40-452 R140Q): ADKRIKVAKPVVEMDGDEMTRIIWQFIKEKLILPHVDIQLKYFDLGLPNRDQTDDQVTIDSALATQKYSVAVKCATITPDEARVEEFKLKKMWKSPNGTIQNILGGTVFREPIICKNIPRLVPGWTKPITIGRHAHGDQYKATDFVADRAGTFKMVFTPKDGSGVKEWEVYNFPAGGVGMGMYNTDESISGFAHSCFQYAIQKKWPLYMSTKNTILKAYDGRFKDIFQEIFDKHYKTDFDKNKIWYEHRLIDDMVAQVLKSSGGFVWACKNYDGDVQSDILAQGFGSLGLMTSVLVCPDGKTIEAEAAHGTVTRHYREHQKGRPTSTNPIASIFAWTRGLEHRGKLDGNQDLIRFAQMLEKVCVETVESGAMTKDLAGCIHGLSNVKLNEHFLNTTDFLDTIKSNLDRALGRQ
Procedure: (§1) 2-Hydroxyglutarate dehydrogenase (2HGDH) can reduce NAD+ to NADH in the presence of 2-HG. The later can be quantitatively detected by diaphorase and its substrate Resazurin.
(§2) The cells were digested with trypsin and seeded in a 96-well plate at a density of 1×10^4 with a medium of 200 μL and cultured in a 37° C. incubator overnight. The next day, the test compound was added to a final concentration of 0.1% for DMSO. […] The protein and other components in the culture medium that may interfere with the results were filtered, and the follow-up method was used to detect the content of 2-HG.
(§3) Extracellular 2-HG Detecting System:
(§4) (1) 50 μL reaction system: reaction buffer (50 mM Tris pH7.5, 100 mM NaCl, 20 mM MgCl2, 0.05% BSA), in which the final concentration of NAD+ was 40 μM, the final concentration of 2HGDH was 20 nM, and the test sample was added to 5 μL of culture medium; the reaction solution was mixed and centrifuged, and the reaction was carried out for 1 hour at 25° C. in the dark;
(2) 25 μL color development system: color development buffer (50 mM Tris pH7.5, 100 mM NaCl, 20 mM MgCl2, 0.05% BSA), in which the final concentration of diaphorase was 36 μg/mL, and the final concentration of resazurin sodium was 3 μM; 25 μL of the above-mentioned color developing solution was added to the 50 μL reaction system in (1), mixed and centrifuged, and the fluorescence value was measured immediately under Ex544/Em590.
(§5) Preparation of standard curve of 2-HG: the stock solution of 2-HG was diluted to 20 μM with reaction buffer, and a 2-fold gradient diluting was performed for a total of 6 points. Afterwards the above-mentioned 2-HG was measured according to the extracellular 2-HG detecting system, and a standard curve was calculated and drawn.
Calculation of Extracellular 2-HG Content:
the fluorescence value obtained in the extracellular 2-HG detecting system was calculated using the 2-HG standard curve to calculate the content of 2-HG in the culture medium, and DMSO was used as a negative control to calculate the compound's inhibition against IDH1/R132H mutation producing the 2-HG activity.
The experimental steps were the same as in Example 7, except that the glioma cell U87MG overexpressing the IDH1/R132H mutation was replaced with the glioma cell U87MG overexpressing the IDH2/R140Q mutation.

[2] = target: T2, IDH1/R132C (Homo sapiens, UniProt O75874, R132C); assay: Inhibitory activity against mutant IDH1/R132C at the cellular level (extracellular 2-HG, HT-1080 cells)
T2 construct: the fibrosarcoma cell HT-1080 containing the IDH1/R132C mutation; endogenous in cells; host or cells: HT-1080 fibrosarcoma cells
T2 sequence (O75874 2-414 R132C limits assumed): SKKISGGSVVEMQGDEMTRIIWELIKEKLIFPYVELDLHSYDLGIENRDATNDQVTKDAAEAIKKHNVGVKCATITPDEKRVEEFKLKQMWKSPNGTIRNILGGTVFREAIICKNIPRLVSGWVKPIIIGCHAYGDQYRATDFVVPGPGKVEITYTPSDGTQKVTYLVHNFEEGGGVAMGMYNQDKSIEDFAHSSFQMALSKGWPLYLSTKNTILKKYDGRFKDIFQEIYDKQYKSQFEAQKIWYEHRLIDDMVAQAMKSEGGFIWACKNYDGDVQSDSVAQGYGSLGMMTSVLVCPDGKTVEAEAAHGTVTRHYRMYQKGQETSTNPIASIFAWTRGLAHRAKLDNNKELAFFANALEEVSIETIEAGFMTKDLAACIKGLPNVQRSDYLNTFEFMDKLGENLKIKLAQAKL
Procedure: as §1, §2, §3, §4, §5

[3] = target: T3, IDH1/R132H (Homo sapiens, UniProt O75874, R132H); assay: Inhibitory activity against mutant IDH1/R132H at the cellular level (extracellular 2-HG, U87MG cells)
T3 construct: expressed in transfected cells; host or cells: U87MG glioma cells
T3 sequence (O75874 whole entry R132H): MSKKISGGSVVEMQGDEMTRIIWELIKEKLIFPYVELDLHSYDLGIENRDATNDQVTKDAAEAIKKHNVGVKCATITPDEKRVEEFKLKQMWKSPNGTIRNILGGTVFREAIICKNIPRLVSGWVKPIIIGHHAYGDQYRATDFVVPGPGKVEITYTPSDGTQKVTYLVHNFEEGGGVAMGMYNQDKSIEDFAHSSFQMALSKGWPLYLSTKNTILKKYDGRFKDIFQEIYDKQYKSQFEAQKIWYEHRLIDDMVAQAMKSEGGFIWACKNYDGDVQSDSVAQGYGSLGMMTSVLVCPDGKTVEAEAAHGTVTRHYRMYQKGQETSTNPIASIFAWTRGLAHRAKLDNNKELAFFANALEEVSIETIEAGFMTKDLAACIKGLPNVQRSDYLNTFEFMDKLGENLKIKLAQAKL
Procedure: as §1, §2, §3, §4, §5

[4] = fibrosarcoma cell HT-1080 containing IDH1/R132C, 2-HG in culture medium, read-out: IC50 (nM), inhibitory activity against IDH1/R132C
[5] = fibrosarcoma cell HT-1080 containing IDH1/R132C, 2-HG in culture medium, read-out: IC50, inhibitory activity against IDH1/R132C
[6] = glioma cell U87MG overexpressing IDH1/R132H, 2-HG in culture medium, read-out: IC50, inhibitory activity against IDH1/R132H
[7] = glioma cell U87MG overexpressing IDH1/R132H, 24 hours, 2-HG in culture medium, read-out: IC50 (nM), inhibitory activity against IDH1/R132H

IC50 [1]	IC50 [2, 4]	IC50 [2, 5]	Inhibition of IDH2/R140Q [1]	IC50 [3, 6]	IC50 [3, 7]	Structure (SMILES)	IC50 [2]	IC50 [3]
> 20 µM	–	–	–	–	–	N#Cc1ccnc(N2C(=O)CC[C@H]2C(=O)N(c2cncc(F)c2)[C@H](C(=O)NC2CC(F)(F)C2)c2ccccc2Cl)c1 [AG-120, reference compound]	–	–
> 20 µM	< 5 nM	≤ 5 nM	did not inhibit	≤ 5 nM	< 5 nM	CC(C)[C@H]1COC(=O)N1c1ccnc(N[C@@H](C)c2ccc(OCCOCCOCCOc3ccc([C@H](C)Nc4nccc(N5C(=O)OC[C@@H]5C(C)C)n4)nc3)cn2)n1 [Compound 1, (4S,4′S)-3,3′-(2,2′-(((1S,1′S)-(5,5′-(((ethane-1,2-diylbis(oxy))bis(ethane-2,1-diyl))bis(oxy))bis(pyridine-5,2-diyl))bis(ethane-1,1-diyl))bis(azanediyl))bis(pyrimidine-4,2-diyl))bis(4-isopropyloxazolidin-2-one)]	–	–
> 20 µM	< 5 nM	≤ 5 nM	did not inhibit	≤ 5 nM	< 5 nM	CC(C)[C@H]1COC(=O)N1c1ccnc(N[C@@H](C)c2ccc(OCCOCCOCCOCCOc3ccc([C@H](C)Nc4nccc(N5C(=O)OC[C@@H]5C(C)C)n4)nc3)cn2)n1 [Compound 2, (4S,4′S)-3,3′-(2,2′-(((1S,1′S)-(5,5′-((((oxybis(ethane-2,1-diyl))bis(oxy))bis(ethane-2,1-diyl))bis(oxy))bis(pyridine-5,2-diyl))bis(ethane-1,1-diyl))bis(azanediyl))bis(pyrimidine-4,2-diyl))bis(4-isopropyloxazolidin-2-one)]	–	–
> 20 µM	–	–	–	–	–	CC(C)[C@H]1COC(=O)N1c1ccnc(N[C@@H](C)c2ccccc2)n1 [IDH125, reference compound]	–	–

Structure (SMILES)	IC50 [1]	IC50 [2, 4]	IC50 [2, 5]	Inhibition of IDH2/R140Q [1]	IC50 [3, 6]	IC50 [3, 7]	IC50 [2]	IC50 [3]
CC(C)[C@H]1COC(=O)N1c1ccnc(N[C@@H](C)c2ccccn2)n1 [Ref1, reference compound]	> 20 µM	–	–	–	–	–	500 to 10000 nM	500 to 10000 nM
